# In ChEMBL document CHEMBL4393685, “Synthesis and evaluation of pyrimidoindole analogs in umbilical cord blood ex vivo expansion” (Eur J Med Chem, 2019):
# Activity calls are given as the source filed them. No cut-off for these calls is given here.
# How the values were obtained:
# [1] = Stimulation of ex vivo expansion of human CD34+ cells assessed as increase in CD34+CD38- cells at 165 nM incubated for 7 days supplemented with 50% fresh medium containing cytokines every other day by flow cytometry relative to base line; format: functional
# [2] = Stimulation of ex vivo expansion of human CD34+ cells assessed as increase in CD34+CD38- cells at 165 nM incubated for 7 days supplemented with 50% fresh medium containing cytokines every other day by flow cytometry relative to control; format: functional
# [3] = Stimulation of ex vivo expansion of human CD34+ cells assessed as CD34+CD38- level at 0.01 to 1 uM incubated for 7 days supplemented with 50% fresh medium containing cytokines every other day by flow cytometry (reference value: 19.10 +/- 0.35%); format: functional
# [4] = Stimulation of ex vivo expansion of human CD34+ cells assessed as CD34+/CD38- level at 0.01 to 1 uM incubated for 7 days supplemented with 50% fresh medium containing cytokines every other day by flow cytometry relative to control; format: functional
# [5] = Cytotoxicity against human CD34+ cells assessed as live cells at 165 nM incubated for 7 days supplemented with 50% fresh medium containing cytokines every other day by flow cytometry (reference value: 77.3 +/- 2%); format: cell-based; settings: read-out: Activity
# Homo sapiens [6] = organism: Homo sapiens; test: Stimulation of ex vivo expansion of human CD34+ cells assessed as decrease in burst forming units of erythroid at 165 nM measured after 14 days; format: functional
# [7] = Stimulation of ex vivo expansion of human CD34+ cells assessed as increase in expansion of total cells at 165 nM incubated for 7 days supplemented with 50% fresh medium containing cytokines every other day by flow cytometry relative to base line; format: functional
# [8] = Stimulation of ex vivo expansion of human CD34+ cells assessed as CD34+ cells at 165 nM incubated for 7 days supplemented with 50% fresh medium containing cytokines every other day by flow cytometry (reference value: 25.9 +/- 0.01%); format: functional
# [9] = Stimulation of ex vivo expansion of human CD34+ cells assessed as increase in colony forming cells at 165 nM after 14 days relative to control; format: functional
# [10] = Stimulation of ex vivo expansion of human CD34+ cells assessed as increase in expansion of total cells at 165 nM incubated for 7 days supplemented with 50% fresh medium containing cytokines every other day by flow cytometry relative to control; format: functional
# [11] = Stimulation of ex vivo expansion of human CD34+ cells assessed as CD34+CD38-CD90+[…] cells at 165 nM incubated for 7 days supplemented with 50% fresh medium containing cytokines every other day by flow cytometry (reference value: 2.98 +/- 0.5%); format: functional
# THP-1 = test: Cytotoxicity against human THP1 cells assessed as reduction cell viability up to 1600 nM after 4 days by CCK8 assay; format: cell-based; settings: thp-1, 96 h
# [12] = Stimulation of ex vivo expansion of human CD34+ cells assessed as CD34+CD38-CD90+[…]CD49F+ cells at 165 nM incubated for 7 days supplemented with 50% fresh medium containing cytokines every other day by flow cytometry (reference value: 0.16 +/- 0.04%); format: functional
# Homo sapiens [13] = organism: Homo sapiens; test: Stimulation of ex vivo expansion of human CD34+ cells assessed as increase in granulocyte/macrophage differentiation at 165 nM measured after 14 days; format: functional
# [14] = Stimulation of ex vivo expansion of human CD34+ cells assessed as increase in CD34+ cells at 165 nM incubated for 7 days supplemented with 50% fresh medium containing cytokines every other day by flow cytometry relative to base line; format: functional
# [15] = Stimulation of ex vivo expansion of human CD34+ cells assessed as CD34+CD38- level incubated for 7 days supplemented with 50% fresh medium containing cytokines every other day by flow cytometry; format: functional; settings: Homo sapiens, 168 h; read-out: EC50
# [16] = Stimulation of ex vivo expansion of human CD34+ cells assessed as colony forming cells at 165 nM measured after 14 days; format: functional
# [17] = Stimulation of ex vivo expansion of human CD34+CD38- cells assessed as increase in expansion of total cells at 165 nM incubated for 7 days supplemented with 50% fresh medium containing cytokines every other day by flow cytometry relative to control; format: functional
# [18] = Stimulation of ex vivo expansion of human CD34+ cells assessed as CD34+/CD38- cells at 165 nM incubated for 7 days supplemented with 50% fresh medium containing cytokines every other day by flow cytometry (reference value: 19.16 +/- 0.32%); format: functional
# Homo sapiens [19] = organism: Homo sapiens; test: Stimulation of ex vivo expansion of human CD34+ assessed as increase in granulocyte differentiation at 165 nM measured after 14 days; format: functional
smiles,measurement,setting,value
COc1cc2c(cc1OC)CN(CCNc1nc(Cc3ccccc3)nc3[nH]c4cc(-c5nnn(C)n5)ccc4c13)CC2,fold change (FC),[1],4 - 5
same,fold change (FC),[2],4.4
same,Activity,[3],69.69%
same,fold change (FC),[4],3.65
same,"viability at 168 h, 0.165 µM",[5],80.6%
same,Activity,Homo sapiens [6],Active
same,fold change (FC),[7],5
same,Activity,[8],60.33%
same,fold change (FC),[9],1.4
same,fold change (FC),[10],2.4
same,Activity,[11],4.05%
same,Activity,THP-1,Non-Toxic
same,Activity,[12],0.21%
same,Activity,Homo sapiens [13],Active
same,fold change (FC),[14],5
same,EC50,[15],0.03 µM
same,Activity,[16],254 CFU
same,fold change (FC),[17],4.9
same,Activity,[18],58%
same,Activity,Homo sapiens [19],Active
